Assay [1] concerns microorganisms (e.g., bacteria, yeasts, fungi). The assay can be described thus: Targeting peptide binding to target microorganisms (Table 3). Particulars: peptide binding in aqueous buffers varied by peptide solubility; preferably 1x PBS.
The subject of another assay is microorganisms. The assay can be described thus: Peptides having multiple activities (targeting/binding, antimicrobial, growth or phenotype altering). The text has this: In certain embodiments, peptides described herein can have multiple activities. Thus for example, a peptide can have both binding/targeting activity and antimicrobial activity. Such peptides can be used, e.g., in a chimeric construct, for any or all of these properties. Thus, for example, a peptide designated “B” in Table 8 can be used as a targeting peptide. If it is also designated G or M it can also be used for antimicrobial activity.

For the next assay, the system named is F. nucleatum. Briefly: Kill or inhibit growth/proliferation; morphology, biofilm and growth disruption (Tables 5, 6). Also: test concentration or dose not given here. Type of assay: cell-based, Fusobacterium nucleatum. Details: key: A: Peptide aggregates; B: Less hyphal formation; Clumps; Diffuse clumps and small polyps; F: Diffuse growth; H: Thin; I: Growth inhibition; Microcolony formation; Rippled; Small polyps; Thick; W: Halo formation on top, microlonies on bottom.

Assay [2] deals with S. mutans. The format is cell-based, Streptococcus mutans. Particulars: S. mutans. As for the experimental part: Typically, the in vitro antimicrobial activity of antimicrobial agents is tested using standard NCCLS bacterial inhibition assays, or MIC tests (see, National Committee on Clinical Laboratory Standards “Performance Standards for Antimicrobial Susceptibility Testing,” NCCLS Document M100-S5 Vol. 14, No. 16, December 1994; “Methods for dilution antimicrobial susceptibility test for bacteria that grow aerobically-Third Edition,” Approved Standard M7-A3, National Committee for Clinical Standards, Villanova, Pa.).
Briefly, ˜1×10^5 cfu/mL bacteria were diluted in TH (S. mutans), or Mueller-Hinton (MH) broth (all other organisms) and distributed to 96-well plates. Serially-diluted (2-fold) peptides were then added and the plates incubated at 37° C. for 18-24 h. […] All experiments were conducted 10 times.

The next assay has as its system S. pneumoniae. Briefly: Kill or inhibit growth/proliferation; morphology, biofilm and growth disruption (Tables 5, 6). Also: test concentration or dose not given here. Type of assay: cell-based, Streptococcus pneumoniae. On the set-up: key: A: Peptide aggregates; B: Less hyphal formation; Clumps; Diffuse clumps and small polyps; F: Diffuse growth; H: Thin; I: Growth inhibition; Microcolony formation; Rippled; Small polyps; Thick; W: Halo formation on top, microlonies on bottom.

For a further assay, the system named is M. luteus. The description is as above. Details: key: A: Peptide aggregates; B: Less hyphal formation; Clumps; Diffuse clumps and small polyps; F: Diffuse growth; H: Thin; I: Growth inhibition; Microcolony formation; Rippled; Small polyps; Thick; W: Halo formation on top, microlonies on bottom. Type of assay: cell-based, Micrococcus luteus.
The next assay relates to E. coli. The description is as above. The format is cell-based, Escherichia coli. Details: key: A: Peptide aggregates; B: Less hyphal formation; Clumps; Diffuse clumps and small polyps; F: Diffuse growth; H: Thin; I: Growth inhibition; Microcolony formation; Rippled; Small polyps; Thick; W: Halo formation on top, microlonies on bottom.
Another assay concerns P. aeruginosa. The description is as above. The format is cell-based, Pseudomonas aeruginosa. On the set-up: key: A: Peptide aggregates; B: Less hyphal formation; Clumps; Diffuse clumps and small polyps; F: Diffuse growth; H: Thin; I: Growth inhibition; Microcolony formation; Rippled; Small polyps; Thick; W: Halo formation on top, microlonies on bottom. Also: test concentration or dose not given here.
In assay [3] the test system is S. mutans. Described as above. The format is cell-based, Streptococcus mutans. Details: key: A: Peptide aggregates; B: Less hyphal formation; Clumps; Diffuse clumps and small polyps; F: Diffuse growth; H: Thin; I: Growth inhibition; Microcolony formation; Rippled; Small polyps; Thick; W: Halo formation on top, microlonies on bottom.
The next assay deals with MRSA. The assay is described as above. The format is cell-based, Methicillin-resistant Staphylococcus aureus. On the set-up: key: A: Peptide aggregates; B: Less hyphal formation; Clumps; Diffuse clumps and small polyps; F: Diffuse growth; H: Thin; I: Growth inhibition; Microcolony formation; Rippled; Small polyps; Thick; W: Halo formation on top, microlonies on bottom.
The test system of another assay is S. epidermidis. The assay is described as above. Details: key: A: Peptide aggregates; B: Less hyphal formation; Clumps; Diffuse clumps and small polyps; F: Diffuse growth; H: Thin; I: Growth inhibition; Microcolony formation; Rippled; Small polyps; Thick; W: Halo formation on top, microlonies on bottom. The format is cell-based, Staphylococcus epidermidis.

Entries after “also recorded” stand apart in the source; their conditions may differ.
For Organism, effect (morphology, biofilm and growth disruption) in this document: test concentration or dose not given here.

“PF-C120: peptide having multiple activities (ASLSTMTFKVMELKELIILLCGLTMLMIQTEFV; Peptide with targeting and/or antimicrobial activity)”: in assay [1], the “Target(s) (microorganisms bound by the targeting peptide)” value was “A. naeslundii; also recorded: F. nucleatum; also recorded: P. gingivalis; also recorded: S. mutans; also recorded: T. denticola”. The Activities result in the assay on microorganisms is listed as “G B”. Besides, in the assay with F. nucleatum, the “Organism, effect (morphology, biofilm and growth disruption)” value was “F. nucleatum (T)”.
FTRKFLKFLHL [Peptide K-17]: the MIC entry in the assay on S. mutans [2] was “S. mutans, 8 μM”.
Same read-out and setting: as for GILKKLFTKVF [Peptide K-13], the entry is “S. mutans, 16 μM”; as for KKFKKFKVLKIL [Peptide K-18], “S. mutans, 16 μM”.
As for “PF-C181: peptide having multiple activities (KMRAGQVVFIYKLILVLLFYVLQKLFDLKKGCF; Peptide with targeting and/or antimicrobial activity)”, the “Target(s) (microorganisms bound by the targeting peptide)” value in assay [1] was “P. gingivalis”. The Activities result in the assay on microorganisms was “G B”. The “Organism, effect (morphology, biofilm and growth disruption)” value with F. nucleatum was “F. nucleatum (T)”.
Take LLKLLKLKKLKF [Peptide K-19]: the MIC entry against S. mutans [2] is reported as “S. mutans, 16 μM”.
With GWLKMFKKIIGKFGKF [Peptide K-21], the MIC result with S. mutans [2] is given as “S. mutans, 8 μM”.
Take “PF-C071: peptide having multiple activities (QVIVKIL; Peptide with targeting and/or antimicrobial activity)”: the “Target(s) (microorganisms bound by the targeting peptide)” value in assay [1] is recorded as “A. naeslundii; also recorded: F. nucleatum; also recorded: S. mutans”. Also, the Activities entry with microorganisms is “G B”. Also, the “Organism, effect (morphology, biofilm and growth disruption)” value in the assay with F. nucleatum is “F. nucleatum (T)”.
In the case of “PF-761: peptide having multiple activities (SKFELVNYASGCSCGADCKCASETECKCASKK; Peptide with targeting and/or antimicrobial activity)”, the “Target(s) (microorganisms bound by the targeting peptide)” value in assay [1] is “S. epidermidis and M. luteus and P. mirabilis and P. aeruginosa and C. albicans and MRSA and S. pneumoniae and E. faecalis”. The “Organism, effect (morphology, biofilm and growth disruption)” value is listed as “S. pneumoniae (C)” in the assay on S. pneumoniae; “M. luteus (C)” in the assay on M. luteus; “E. coli (C)” in the assay on E. coli; “P. aeruginosa (C)” in the assay with P. aeruginosa; “S. mutans (D)” with S. mutans [3]; “MRSA (D)” in the assay on MRSA. For the same substance, in the assay on S. epidermidis, the “Organism, effect (morphology, biofilm and growth disruption)” value is on record as “S. epidermidis (C)”. Besides, the Activities result with microorganisms is on record as “G B”.
On to “PF-C214 (GGHKQLVIEPLVSQ; Peptide with targeting and/or antimicrobial activity)”, for which the “Organism, effect (morphology, biofilm and growth disruption)” value in the assay on F. nucleatum is recorded as “F. nucleatum (T)”.
For the substance GLGRVIGRLIKQIIWRR [Peptide K-1], the MIC entry in the assay on S. mutans [2] is “S. mutans, 25 μM”.
In the case of FIRKFLKKWLL [Peptide K-9], in the assay on S. mutans [2], the MIC result was “S. mutans, 4 μM”.
Consider “PF-C091: peptide having multiple activities (ASNTPRFVRLTLFNFYSKIWNVTHLFLFNNL; Peptide with targeting and/or antimicrobial activity)”, for which the “Target(s) (microorganisms bound by the targeting peptide)” value in assay [1] is listed as “A. naeslundii; also recorded: F. nucleatum; also recorded: P. gingivalis; also recorded: S. mutans; also recorded: T. denticola”. The Activities result in the assay on microorganisms is listed as “G B”. The “Organism, effect (morphology, biofilm and growth disruption)” value with F. nucleatum is “F. nucleatum (T)”.
Regarding “PF-C064: peptide having multiple activities (DEEALEMGANLYAQFAIDFLNSKK; Peptide with targeting and/or antimicrobial activity)”, in assay [1], the “Target(s) (microorganisms bound by the targeting peptide)” value is “A. naeslundii; also recorded: F. nucleatum; also recorded: P. gingivalis; also recorded: S. mutans; also recorded: T. denticola”. Further, the Activities result in the assay on microorganisms is recorded as “G B”. Further, the “Organism, effect (morphology, biofilm and growth disruption)” value in the assay on F. nucleatum is given as “F. nucleatum (T)”.
Consider KLFKFLRKHLL [Peptide K-10], for which, in the assay with S. mutans [2], the MIC entry is listed as “S. mutans, 4 μM”.
As to LRKNLRWLF [Peptide K-15], the MIC result in the assay with S. mutans [2] is recorded as “S. mutans, 4 μM”.
As to “PF-746: peptide having multiple activities (FLGNSQYFTRK; Peptide with targeting and/or antimicrobial activity)”, in assay [1], the “Target(s) (microorganisms bound by the targeting peptide)” value was “S. epidermidis; also recorded: M. luteus; also recorded: E. coli; also recorded: C. albicans; also recorded: S. pneumoniae; also recorded: E. faecalis; also recorded: C. jeikeium”. Also, the “Organism, effect (morphology, biofilm and growth disruption)” value is given as “S. pneumoniae (C)” in the assay with S. pneumoniae; “M. luteus (C)” in the assay with M. luteus; “E. coli (C)” in the assay with E. coli; “P. aeruginosa (A)” with P. aeruginosa; “S. mutans (D)” with S. mutans [3]; “MRSA (C)” in the assay with MRSA. In addition, in the assay with S. epidermidis, the “Organism, effect (morphology, biofilm and growth disruption)” value is “S. epidermidis (C)”. In the assay with microorganisms, the Activities result was “G B”.
As to VYRKRKSILKIYAKLKGWH [Peptide K-2], in the assay on S. mutans [2], the MIC entry is reported as “S. mutans, 12.5 μM”.
“PF-C143: peptide having multiple activities (VVFGGGDRLV; Peptide with targeting and/or antimicrobial activity)”: in assay [1], the “Target(s) (microorganisms bound by the targeting peptide)” value is “A. naeslundii; also recorded: F. nucleatum; also recorded: P. gingivalis; also recorded: S. mutans; also recorded: T. denticola”. In addition, the Activities result with microorganisms is recorded as “G B”. Further, the “Organism, effect (morphology, biofilm and growth disruption)” value with F. nucleatum was “F. nucleatum (C)”.
Regarding GIFKKFVKILYKVQKL [Peptide K-22], the MIC entry against S. mutans [2] was “S. mutans, 8 μM”.
Consider KILKFLFKKVF [Peptide K-8], for which, in the assay with S. mutans [2], the MIC entry is reported as “S. mutans, 4 μM”.
In the case of KILKFLFKQVF [Peptide K-11], in the assay on S. mutans [2], the MIC entry is recorded as “S. mutans, 4 μM”.
As for NYRLVNAIFSKIFKKKFIKF [Peptide K-7], the MIC result with S. mutans [2] is reported as “S. mutans, 12.5 μM”.
Turning to “PF-C137: peptide having multiple activities (QRMYWFKRGFETGDFSAGDTFAELK; Peptide with targeting and/or antimicrobial activity)”, the “Target(s) (microorganisms bound by the targeting peptide)” value in [1] was “A. naeslundii; also recorded: F. nucleatum; also recorded: P. gingivalis; also recorded: S. mutans”. Also, the Activities result in the assay on microorganisms was “G B”. The “Organism, effect (morphology, biofilm and growth disruption)” value with F. nucleatum is given as “F. nucleatum (T)”.
Regarding FLKFLKKFFKKLKY [Peptide K-20], the MIC result with S. mutans [2] is “S. mutans, 8 μM”.
The same measure, in the same setting: under LRKFLHKLF [Peptide K-14] stands “S. mutans, 8 μM”.
Regarding “PF-C069: peptide having multiple activities (NALMLREMQLAKNIKVEVTDVLSNKKYC; Peptide with targeting and/or antimicrobial activity)”, in assay [1], the “Target(s) (microorganisms bound by the targeting peptide)” value was “A. naeslundii; also recorded: F. nucleatum; also recorded: P. gingivalis; also recorded: S. mutans; also recorded: T. denticola”. Moreover, the Activities result with microorganisms is on record as “G B”. The “Organism, effect (morphology, biofilm and growth disruption)” value with F. nucleatum is recorded as “F. nucleatum (T)”.
On to KILKKLFKFVF [Peptide K-12], for which, in the assay on S. mutans [2], the MIC entry is recorded as “S. mutans, 8 μM”.

Values taken from patent publication US20110039762A1, “TARGETED ANTIMICROBIAL MOIETIES” (C3 JIAN, INC., priority 2009, published 2011).
